Several values for one entry are separate records, joined by “and”; a condition that tells them apart may be missing. Equal entries are not always repeated. Inconclusive results and toxic doses are left out. The calls were made as follows: active = survival T/C of 150% or more; inactive = T/C below 125% in these data.
System: CD2F1 mice, L1210 leukemia ip, survival T/C
Test: NCI In Vivo Anticancer Drug Screen. Data for tumor model L1210 Leukemia (intraperitoneal) in CD2F1 (CDF1) mice
Conditions: higher = longer survival
In short: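 Antitumor effect is scored in animals hosting a serially transplanted tumor. Values compare compound-dosed animals against vehicle-only controls as a simple quotient.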

[1] = endpoint: mean survival time, dose: 25.0 mg/kg/injection, schedule: Q04DX002 (ip), vehicle: saline with Tween-80
[2] = endpoint: mean survival time, dose: 50.0 mg/kg/injection, schedule: Q04DX002 (ip), vehicle: saline with Tween-80
[3] = endpoint: mean survival time, dose: 100.0 mg/kg/injection, schedule: Q04DX002 (ip), vehicle: saline with Tween-80
[4] = endpoint: mean survival time, dose: 25.0 mg/kg/injection, schedule: Q01DX009 (ip), vehicle: saline with Tween-80
[5] = endpoint: mean survival time, dose: 50.0 mg/kg/injection, schedule: Q01DX009 (ip), vehicle: saline with Tween-80
[6] = endpoint: mean survival time, dose: 100.0 mg/kg/injection, schedule: Q01DX009 (ip), vehicle: saline with Tween-80
[7] = endpoint: mean survival time, dose: 12.5 mg/kg/injection, schedule: Q04DX002 (ip), vehicle: saline with Tween-80
[8] = endpoint: mean survival time, dose: 50.0 mg/kg/injection, schedule: Q04DX003 (ip), vehicle: saline with Tween-80
[9] = endpoint: mean survival time, dose: 12.5 mg/kg/injection, schedule: Q01DX009 (ip), vehicle: saline with Tween-80
[10] = endpoint: mean survival time, dose: 200.0 mg/kg/injection, schedule: Q01DX009 (ip), vehicle: saline with Tween-80
[11] = endpoint: mean survival time, dose: 400.0 mg/kg/injection, schedule: Q01DX009 (ip), vehicle: saline with Tween-80
[12] = endpoint: mean survival time, dose: 100.0 mg/kg/injection, schedule: Q04DX003 (ip), vehicle: saline with Tween-80
[13] = endpoint: mean survival time, dose: 200.0 mg/kg/injection, schedule: Q04DX003 (ip), vehicle: saline with Tween-80
[14] = endpoint: mean survival time, dose: 25.0 mg/kg/injection, schedule: Q04DX003 (ip), vehicle: saline with Tween-80
[15] = endpoint: mean survival time, dose: 100.0 mg/kg/injection, schedule: Q04DX003 (ip), vehicle: saline
[16] = endpoint: mean survival time, dose: 200.0 mg/kg/injection, schedule: Q04DX003 (ip), vehicle: saline
[17] = endpoint: mean survival time, dose: 400.0 mg/kg/injection, schedule: Q04DX003 (ip), vehicle: saline

Measured: T/C

CN(C=O)C(C(=O)Nc1cccc2c(OC(=O)C(N(C)C=O)(N(C)C=O)N(C)C=O)c(N=Nc3ccc(S(=O)(=O)Nc4nccs4)cc3)cc(N=Nc3ccc(S(=O)(=O)Nc4nccs4)cc3)c12)(N(C)C=O)N(C)C=O (tested in a mixture with another compound)
inactive: endpoint: median survival time, dose: 12.0 mg/kg/injection, schedule: Q01DX009 (ip), vehicle: saline with Tween-80 95 % of control | endpoint: median survival time, dose: 25.0 mg/kg/injection, schedule: Q01DX009 (ip), vehicle: saline with Tween-80 106 % of control | endpoint: median survival time, dose: 50.0 mg/kg/injection, schedule: Q01DX009 (ip), vehicle: saline with Tween-80 95 % of control | endpoint: median survival time, dose: 100.0 mg/kg/injection, schedule: Q01DX009 (ip), vehicle: saline with Tween-80 94 % of control | endpoint: median survival time, dose: 200.0 mg/kg/injection, schedule: Q01DX009 (ip), vehicle: saline with Tween-80 97 % of control | endpoint: median survival time, dose: 400.0 mg/kg/injection, schedule: Q01DX009 (ip), vehicle: saline with Tween-80 106 % of control

O=C(/C=C\c1ccc(Cl)c(Cl)c1)/C=C/c1ccc(Cl)c(Cl)c1
inactive: [1] 95 % of control | [2] 87 % of control | [3] 106 % of control

Cc1cc(F)ccc1NC(=O)Nc1ccc(F)cc1C
inactive: [1] 87 % of control | [2] 87 % of control

COC(=O)CCC(=O)C=[N+]=[N-]
inactive: endpoint: mean survival time, dose: 1.5 mg/kg/injection, schedule: Q01DX009 (ip), vehicle: other 94 % of control | endpoint: mean survival time, dose: 3.1 mg/kg/injection, schedule: Q01DX009 (ip), vehicle: other 94 % of control | endpoint: mean survival time, dose: 6.2 mg/kg/injection, schedule: Q01DX009 (ip), vehicle: other 91 % of control | endpoint: mean survival time, dose: 12.5 mg/kg/injection, schedule: Q01DX009 (ip), vehicle: other 91 % of control

COC12C(COC(C)=O)C3=C(C(=O)C(C)=C(N4CCCCC4)C3=O)N1CC1NC12 (configuration not stated)
inactive: endpoint: mean survival time, dose: 0.75 mg/kg/injection, schedule: Q01DX001 (ip), vehicle: distilled water + Tween-80 97 % of control | endpoint: mean survival time, dose: 1.5 mg/kg/injection, schedule: Q01DX001 (ip), vehicle: distilled water + Tween-80 103 % of control | endpoint: mean survival time, dose: 3.0 mg/kg/injection, schedule: Q01DX001 (ip), vehicle: distilled water + Tween-80 105 % of control and 112 % of control | endpoint: mean survival time, dose: 6.0 mg/kg/injection, schedule: Q01DX001 (ip), vehicle: distilled water + Tween-80 122 % of control and 105 % of control | endpoint: mean survival time, dose: 12.0 mg/kg/injection, schedule: Q01DX001 (ip), vehicle: distilled water + Tween-80 112 % of control

COC(=O)CC[S+](C)CCC(=O)OC
inactive: endpoint: mean survival time, dose: 7.5 mg/kg/injection, schedule: Q01DX009 (ip), vehicle: saline 94 % of control | endpoint: mean survival time, dose: 15.0 mg/kg/injection, schedule: Q01DX009 (ip), vehicle: saline 98 % of control | endpoint: mean survival time, dose: 30.0 mg/kg/injection, schedule: Q01DX009 (ip), vehicle: saline 90 % of control

CN(C)CCCNc1cccc2c1C(=O)c1cccc(NCCCN(C)C)c1C2=O
inactive: endpoint: mean survival time, dose: 8.0 mg/kg/injection, schedule: Q01DX009 (ip), vehicle: acid diluted with saline 102 % of control | endpoint: mean survival time, dose: 16.0 mg/kg/injection, schedule: Q01DX009 (ip), vehicle: acid diluted with saline 102 % of control | endpoint: mean survival time, dose: 32.0 mg/kg/injection, schedule: Q01DX009 (ip), vehicle: acid diluted with saline 106 % of control | endpoint: mean survival time, dose: 64.0 mg/kg/injection, schedule: Q01DX009 (ip), vehicle: acid diluted with saline 100 % of control

COc1ccccc1NC(=O)Oc1ccccc1-c1ccccc1
inactive: [4] 93 % of control | [1] 98 % of control | [5] 93 % of control | [2] 110 % of control | [6] 93 % of control | [3] 87 % of control and 104 % of control

CN=C(NC)N/N=C(/c1ccc(Br)cc1)c1ccc(C(F)(F)F)cc1
inactive: [7] 90 % of control | [1] 90 % of control | [8] 98 % of control | endpoint: mean survival time, dose: 100.0 mg/kg/injection, schedule: Q01DX001 (ip), vehicle: saline sonified 97 % of control | endpoint: mean survival time, dose: 200.0 mg/kg/injection, schedule: Q01DX001 (ip), vehicle: saline sonified 93 % of control

NC(=S)N/N=C\c1ncccc1OCc1cccc(N)c1
inactive: endpoint: mean survival time, dose: 12.5 mg/kg/injection, schedule: Q01DX009 (ip), vehicle: distilled water + Tween-80 104 % of control | [9] 100 % of control | endpoint: mean survival time, dose: 25.0 mg/kg/injection, schedule: Q01DX009 (ip), vehicle: distilled water + Tween-80 113 % of control and 104 % of control | [4] 116 % of control and 100 % of control and 107 % of control | endpoint: mean survival time, dose: 50.0 mg/kg/injection, schedule: Q01DX009 (ip), vehicle: distilled water + Tween-80 119 % of control and 111 % of control | [5] 101 % of control and 103 % of control and 110 % of control | endpoint: mean survival time, dose: 100.0 mg/kg/injection, schedule: Q01DX009 (ip), vehicle: distilled water + Tween-80 113 % of control and 119 % of control | [6] 117 % of control and 100 % of control and 105 % of control | endpoint: mean survival time, dose: 200.0 mg/kg/injection, schedule: Q01DX009 (ip), vehicle: distilled water + Tween-80 122 % of control | [10] 114 % of control and 117 % of control and 108 % of control | endpoint: mean survival time, dose: 400.0 mg/kg/injection, schedule: Q01DX009 (ip), vehicle: distilled water + Tween-80 117 % of control | [11] 115 % of control and 108 % of control | endpoint: median survival time, dose: 50.0 mg/kg/injection, schedule: Q01DX009 (ip), vehicle: distilled water + Tween-80 109 % of control | endpoint: median survival time, dose: 100.0 mg/kg/injection, schedule: Q01DX009 (ip), vehicle: distilled water + Tween-80 115 % of control | endpoint: median survival time, dose: 200.0 mg/kg/injection, schedule: Q01DX009 (ip), vehicle: distilled water + Tween-80 118 % of control | endpoint: median survival time, dose: 400.0 mg/kg/injection, schedule: Q01DX009 (ip), vehicle: distilled water + Tween-80 124 % of control

CC(=O)Nc1ccc([N+](=O)[O-])cc1[N+](=O)[O-]
inactive: [12] 100 % of control | [13] 102 % of control

O=C(Cc1nc2ccccc2[nH]c1=O)N/N=C/c1ccc2c(c1)CCC2
inactive: [6] 92 % of control | [10] 88 % of control | [11] 88 % of control

Cc1ccc(/C=C(/F)OC(C)(C)C)cc1
inactive: endpoint: mean survival time, dose: 50.0 mg/kg/injection, schedule: Q01DX001 (ip), vehicle: saline with Tween-80 97 % of control | endpoint: mean survival time, dose: 100.0 mg/kg/injection, schedule: Q01DX001 (ip), vehicle: saline with Tween-80 101 % of control | endpoint: mean survival time, dose: 200.0 mg/kg/injection, schedule: Q01DX001 (ip), vehicle: saline with Tween-80 100 % of control

CC1CCC(NC2=NCCO2)C(C)C1 (configuration not stated)
inactive: [9] 105 % of control | [4] 112 % of control | [14] 101 % of control | [5] 101 % of control | [8] 101 % of control

CC(C)(C)C1SCC(O)CS1 (configuration not stated)
inactive: [7] 105 % of control | [1] 97 % of control | [2] 97 % of control

CCCCn1c(Cc2ccccc2)nc2c1C(=O)c1ccccc1C2=O
inactive: [15] 103 % of control | [16] 101 % of control | [17] 98 % of control

CCCCNC(C)(C)C(SSC(c1cccs1)C(C)(C)NCCCC)c1cccs1 (configuration not stated)
inactive: [14] 97 % of control | [8] 101 % of control | [12] 98 % of control

Nc1ccc(/C=C/c2ccnc3ccccc23)cc1
inactive: endpoint: mean survival time, dose: 4.0 mg/kg/injection, schedule: Q01DX Z (ip), vehicle: saline 104 % of control | endpoint: mean survival time, dose: 8.0 mg/kg/injection, schedule: Q01DX Z (ip), vehicle: saline 101 % of control | endpoint: mean survival time, dose: 16.0 mg/kg/injection, schedule: Q01DX Z (ip), vehicle: saline 98 % of control

CCOC(=O)N1C2c3ccccc3C(c3ccccc32)N1C(=O)OCC
inactive: [6] 94 % of control | [12] 95 % of control | [10] 89 % of control | [13] 98 % of control | endpoint: mean survival time, dose: 400.0 mg/kg/injection, schedule: Q04DX003 (ip), vehicle: saline with Tween-80 93 % of control

CCCC(NC(=O)CN)C(=O)O (configuration not stated)
inactive: [15] 100 % of control | [16] 97 % of control | [17] 102 % of control

CC1NC1(c1ccccc1)n1ccnc1 (configuration not stated)
inactive: endpoint: mean survival time, dose: 12.5 mg/kg/injection, schedule: Q01DX009 (ip), vehicle: water 95 % of control | endpoint: mean survival time, dose: 25.0 mg/kg/injection, schedule: Q01DX009 (ip), vehicle: water 99 % of control | endpoint: mean survival time, dose: 50.0 mg/kg/injection, schedule: Q01DX009 (ip), vehicle: water 99 % of control | endpoint: mean survival time, dose: 100.0 mg/kg/injection, schedule: Q01DX009 (ip), vehicle: water 103 % of control | endpoint: mean survival time, dose: 200.0 mg/kg/injection, schedule: Q01DX009 (ip), vehicle: water 90 % of control
